Data from patent publication US20250163047A1, “HETEROCYCLIC COMPOUNDS, COMPOSITIONS THEREOF, AND METHODS OF TREATMENT THEREWITH” (BeiGene, Ltd., priority 2022, published 2025).

Columns and labels:
[1] = molecular target: T1, Cbl-b (aa36-427) (Homo sapiens, UniProt Q13191); assay: Biotin-labelled Cbl-b biochemical assay (CBLB/E2-Ub binding, HTRF); settings: 5.0 nM biotin labelled Cbl-b
T1 construct: Cbl-b (aa36-427, in-house); made in house
Method: (§1) The assay in the absence of a Cbl-b/Cbl inhibitor, where phosphorylation of Cbl-b/Cbl by the Src kinase allows UbcH5B-Ub to bind to Cbl-b/Cbl and brings the Bodipy-Fluorescein tagged ubiquitin in proximity to the streptavidin-terbium bound to the N-terminal biotinylated Avi-tagged Cbl-b/Cbl. […] The lack of a FRET signal indicates Cbl-b/Cbl is inhibited by the Cbl-b/Cbl inhibitor.
(§2) 5.0 nM recombinant biotin labelled Cbl-b was pre-incubated with a serial dilution of compounds (maximum concentration is 100 μM, 3-fold serially diluted, 16 points) at room temperature for 1.5 hour in an assay buffer containing 50 mM HEPES, pH 7.0, 100 mM NaCl, 0.01% BSA, 1 mM DTT, 0.01% Triton X-100. Then 25 nM in-house UbcH5B-Ub conjugate protein, 60 nM SRC (aa251-536, in-house), 0.5 mM ATP, 5 mM MgCl2 and Streptavidin-Tb cryptate (Cat: 610SATLB, Cisbio Bioassays) were added to plate and further incubated at room temperature for 2 hours.

[2] = molecular target: T2, Cbl (aa49-434) (Homo sapiens, UniProt P22681); assay: Biotin-labelled Cbl biochemical assay (CBL/E2-Ub binding, HTRF); settings: 5.0 nM biotin labelled Cbl
T2 construct: Cbl (aa49-434, in-house); made in house
T2 sequence (P22681 49-434): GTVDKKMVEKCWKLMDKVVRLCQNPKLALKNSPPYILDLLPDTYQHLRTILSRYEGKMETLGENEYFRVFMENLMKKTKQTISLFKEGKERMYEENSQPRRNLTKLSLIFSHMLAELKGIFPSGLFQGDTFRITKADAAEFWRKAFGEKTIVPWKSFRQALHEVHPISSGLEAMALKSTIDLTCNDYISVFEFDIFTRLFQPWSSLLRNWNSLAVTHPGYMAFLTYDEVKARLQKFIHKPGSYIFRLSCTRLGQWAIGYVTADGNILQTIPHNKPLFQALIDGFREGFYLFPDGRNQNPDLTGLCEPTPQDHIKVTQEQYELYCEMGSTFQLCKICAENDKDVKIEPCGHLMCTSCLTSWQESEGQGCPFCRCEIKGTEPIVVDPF
Method: as §1
as §2, with “labelled Cbl” for “labelled Cbl-b”, “100 µM,” for “100 μM,”, “Then 10” for “Then 25”

[3] = molecular target: T1, Cbl-b (aa36-427); assay: Co-expressed Cbl-b with BirA biochemical assay (CBLB/E2-Ub binding, HTRF); settings: 0.6 nM Cbl-b co-expressed with BirA, HTRF; read-out: co-express CBLB/E2-Ub-binding assay IC50
Source text: as §1

[4] = molecular target: T2, Cbl (aa49-434); assay: Co-expressed Cbl with BirA biochemical assay (CBL/E2-Ub binding, HTRF); settings: 0.6 nM Cbl co-expressed with BirA, read-out: co-express CBL/E2-Ub-binding assay IC50
Source text: as §1

T1 sequence (Q13191 36-427): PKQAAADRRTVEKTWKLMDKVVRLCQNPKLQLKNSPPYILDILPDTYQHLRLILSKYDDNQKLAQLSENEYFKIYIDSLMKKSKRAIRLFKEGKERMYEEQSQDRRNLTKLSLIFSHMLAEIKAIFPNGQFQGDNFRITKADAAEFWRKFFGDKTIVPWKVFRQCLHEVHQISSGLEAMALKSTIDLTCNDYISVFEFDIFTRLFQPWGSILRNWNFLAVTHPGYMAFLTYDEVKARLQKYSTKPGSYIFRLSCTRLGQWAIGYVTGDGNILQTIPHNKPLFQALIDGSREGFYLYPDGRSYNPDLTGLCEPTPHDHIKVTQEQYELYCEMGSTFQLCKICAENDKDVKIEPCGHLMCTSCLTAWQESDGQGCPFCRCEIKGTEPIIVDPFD

SMILES | IC50 [1] | IC50 [2] | IC50 [3] | IC50 [4]
C[C@H]1CCCN(Cc2cc(C(=O)Nc3cccc([C@]4(c5nncn5C)C[C@H](C)C4)c3)c3nccn3c2)C1 [Compound A2, N-(3-((1r,3S)-3-methyl-1-(4-methyl-4H-1,2,4-triazol-3-yl)cyclobutyl)phenyl)-6-(((S)-3-methylpiperidin-1-yl)methyl)imidazo[1,2-a]pyridine-8-carboxamide] | 3.26 nM | 23 nM |  | 
C[C@H]1CCCN(Cc2cc(C(=O)Nc3cccc([C@]4(c5nncn5C)C[C@@H](CC#N)C4)c3)c3nccn3c2)C1 [Compound A3, N-(3-((1s,3R)-3-(cyanomethyl)-1-(4-methyl-4H-1,2,4-triazol-3-yl)cyclobutyl)phenyl)-6-(((S)-3-methylpiperidin-1-yl)methyl)imidazo[1,2-a]pyridine-8-carboxamide] | 5.8 nM | 60.1 nM | 7.1 nM | 47 nM
C[C@H]1CCCN(Cc2cc(C(=O)Nc3cccc([C@]4(Cc5nncn5C)C[C@@H](C#N)C4)c3)c3nccn3c2)C1 [Compound A4, N-(3-((1r,3S)-3-cyano-1-((4-methyl-4H-1,2,4-triazol-3-yl)methyl)cyclobutyl)phenyl)-6-(((S)-3-methylpiperidin-1-yl)methyl)imidazo[1,2-a]pyridine-8-carboxamide] | 3.3 nM | 28.7 nM |  | 
C[C@@H]1CN(Cc2cc(C(=O)Nc3cccc([C@]4(c5nncn5C)C[C@@H](CC#N)C4)c3)c3nccn3c2)CCO1 [Compound A5, N-(3-((1s,3S)-3-(cyanomethyl)-1-(4-methyl-4H-1,2,4-triazol-3-yl)cyclobutyl)phenyl)-6-(((R)-2-methylmorpholino)methyl)imidazo[1,2-a]pyridine-8-carboxamide] | 138 nM | 914 nM |  | 
CC1CC(c2cccc(NC(=O)c3cc(CN4CCC[C@H](C)C4)c4c(n3)CCC4)c2)(c2nncn2C)C1 (stereo partly drawn) [Compound C1, (S)—N-(3-(3-methyl-1-(4-methyl-4H-1,2,4-triazol-3-yl)cyclobutyl)phenyl)-4-((3-methylpiperidin-1-yl)methyl)-6,7-dihydro-5H-cyclopenta[b]pyridine-2-carboxamide] | 11 nM | 60 nM |  | 
CC1CCc2c(CN3CCC[C@H](C)C3)cc(C(=O)Nc3cccc([C@]4(c5nncn5C)C[C@@H](C)C4)c3)nc21 (stereo partly drawn) [Compound C2, 7-methyl-N-(3-((1s,3R)-3-methyl-1-(4-methyl-4H-1,2,4-triazol-3-yl)cyclobutyl)phenyl)-4-(((S)-3-methylpiperidin-1-yl)methyl)-6,7-dihydro-5H-cyclopenta[b]pyridine-2-carboxamide] | 11.9 nM | 28.8 nM |  | 
C[C@H]1CCCN(Cc2cc(C(=O)Nc3cccc([C@]4(c5nncn5C)C[C@@H](C)C4)c3)nc3c2CCC3(F)F)C1 [Compound C5, 7,7-difluoro-N-(3-((1s,3R)-3-methyl-1-(4-methyl-4H-1,2,4-triazol-3-yl)cyclobutyl)phenyl)-4-(((S)-3-methylpiperidin-1-yl)methyl)-6,7-dihydro-5H-cyclopenta[b]pyridine-2-carboxamide] | 8.3 nM | 29.1 nM |  | 
C[C@H]1CCCN(Cc2cc(C(=O)Nc3cccc([C@]4(c5nncn5C)C[C@@H](CC#N)C4)c3)nc3c2CCC3(F)F)C1 [Compound C6, N-(3-((1s,3R)-3-(cyanomethyl)-1-(4-methyl-4H-1,2,4-triazol-3-yl)cyclobutyl)phenyl)-7,7-difluoro-4-(((S)-3-methylpiperidin-1-yl)methyl)-6,7-dihydro-5H-cyclopenta[b]pyridine-2-carboxamide] | 3.4 nM | 48 nM |  | 
